Data taken from paper PMC3503319 (Biochemistry, 2010).

Target: B. subtilis DAPAS (Bs-DAPAS) (Bacillus subtilis, UniProt P53555)
Assay: X-ray crystal structure, […] Å
Assay type: binding
Details: active site

B. subtilis DAPAS (Bs-DAPAS), sequence (P53555 whole entry, looked up): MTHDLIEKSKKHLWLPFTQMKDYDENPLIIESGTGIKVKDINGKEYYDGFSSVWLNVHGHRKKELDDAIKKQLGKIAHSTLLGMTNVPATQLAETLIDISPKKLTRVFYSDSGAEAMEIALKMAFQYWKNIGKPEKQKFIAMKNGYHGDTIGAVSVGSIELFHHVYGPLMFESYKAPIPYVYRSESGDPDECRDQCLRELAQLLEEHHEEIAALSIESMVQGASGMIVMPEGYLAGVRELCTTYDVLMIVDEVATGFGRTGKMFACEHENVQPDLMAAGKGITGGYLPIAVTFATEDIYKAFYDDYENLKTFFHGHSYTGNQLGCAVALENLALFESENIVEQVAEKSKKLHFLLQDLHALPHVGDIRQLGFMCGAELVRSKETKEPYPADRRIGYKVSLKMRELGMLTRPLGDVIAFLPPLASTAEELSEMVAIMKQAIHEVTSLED

## Cc1ncc(COP(=O)(O)O)c(C=O)c1O [PLP]
  X-ray crystal structure, 1.9 Å (cocrystallization, 1 mM PLP): the crystal structure of the B. subtilis DAPAS apoprotein, its PLP-bound complex
